Measurements: publication PMC10005750 (Molecules, 2023)

Key:
[1] = Pharmacokinetic interaction study after oral administration of DPZ and TAD, alone or in combination, in rats; details: rat; for CL/F (apparent systemic clearance): tadalafil 0.3 mg/kg oral, n = 3, mean ± SD
Procedure: The rat plasma was stored at −70 °C. The plasma samples were thawed at room temperature and then centrifuged at 1800× g (4 °C) for 8 min before pipetting. Using a micropipette, 30 µL of the plasma sample was transferred into a polypropylene microtube, and 10 µL of IS working solution was added to each sample. Further, 0.2 mL of acetonitrile was then added and vortexed for 1 min. […] The supernatant was transferred to an analytical vessel, and 2 µL of the sample was injected into the LC-MS/MS system.
Rats were divided into three groups (n = 3): group 1, DPZ (3 mg/kg); group 2, TAD (0.3 mg/kg); and group 3, DPZ (3 mg/kg) combined with TAD (0.3 mg/kg). Animals were fasted overnight and allowed free access to water.
The peak plasma concentration, Cmax, and Tmax (the time to reach Cmax) for DPZ and TAD were calculated using individual plasma concentration–time profiles. […] The terminal half-life (T1/2) was calculated as ln 2/λz (λz is the elimination rate constant estimated by using the least-squares linear regression method of the terminal log-linear portion of the plasma concentration–time curve). The apparent clearance (CL/F) was calculated as CL/F = dose/AUC0-∞. The Mann–Whitney U test was used to determine the differences in the mean plasma concentration and PK profiles of DPZ and TAD between the single and combined administration groups. Statistical analysis was performed using SPSS Statistics (version 26.0; IBM SPSS Statistics for Windows, Armonk, NY, USA), and a p-value < 0.05 was considered statistically significant.

[2] = Plasma sample stability at low and high QC under storage and handling conditions
Procedure: Standard stock solutions of DPZ, TAD, and LPZ (IS) were prepared in methanol at a concentration of 100 µg/mL and stored at −20 °C. Working solutions were prepared by diluting the stock solutions with 50% methanol. The concentration of DPZ and TAD ranged from 1 to 200 ng/mL. […] The IS working solution was prepared by diluting the stock solution with 50% methanol to a concentration of 20 ng/mL. All working stock solutions were prepared and stored at −20 °C until use. Calibration standards and QC samples of DPZ and TAD in rat plasma were diluted with the corresponding working solutions and blank rat plasma. Drug-free plasma, that is, control (blank) plasma, stored in a deep freezer, was completely thawed at room temperature before use. Ten percent spiking with working DPZ and TAD stock solutions was performed in blank plasma. The spiked QC samples were stored at −70 °C for stability studies.
Stability analyses of the stock solutions were performed at room temperature for 3 h and under refrigerated conditions (4 °C) for 14 days. The stability of the plasma analytes was tested for low and high QC under pre-specified conditions: room temperature for 5 h, refrigeration (4 °C) for 14 days, autosampler (10 °C) for 20 h, four cycles of freezing-thawing, and finally frozen conditions (−70 °C) for 28 days for long-term stability.

[3] = male, Sprague-Dawley, plasma, po
[4] = male, Sprague-Dawley, plasma, po, 0.3 mg/kg

## CN1CC(=O)N2[C@H](c3ccc4c(c3)OCO4)c3[nH]c4ccccc4c3C[C@@H]2C1=O [Tadalafil, tadalafil]
[1]; [3]
  Tmax: 0.5 h
  half-life: 1.96 ± 0.212 h
[1]; [4]
  AUC(0-inf): 50.4 ± 23.6 ng·h/mL
  AUC(0-t): 47 ± 24.4 ng·h/mL
  Cmax: 17.8 ± 6 ng/mL
  MRT last: 2.53 ± 0.214 h
  Tmax: 0.5 h
  half-life: 1.52 ± 0.12 h
[1]; alone
  CL/F (apparent systemic clearance): 7.355 ± 4.516 L/h
[1]; with DPZ 3 mg/kg
  CL/F (apparent systemic clearance): 11.819 ± 9.852 L/h
[2]; extracted rat plasma sample, autosampler (10 °C, 20 h), nominal 2 ng/mL
  Plasma sample stability (Mean ± SD, %): 99.63 ± 6.03%
[2]; extracted rat plasma sample, autosampler (10 °C, 20 h), nominal 160 ng/mL
  Plasma sample stability (Mean ± SD, %): 102.18 ± 3.98%
[2]; rat plasma, freeze-thaw (4 cycles), nominal 2 ng/mL
  Plasma sample stability (Mean ± SD, %): 95.15 ± 2.69%
[2]; rat plasma, freeze-thaw (4 cycles), nominal 160 ng/mL
  Plasma sample stability (Mean ± SD, %): 103.60 ± 1.55%
[2]; rat plasma, refrigeration (4 °C, 14 days), nominal 2 ng/mL
  Plasma sample stability (Mean ± SD, %): 93.52 ± 3.03%
[2]; rat plasma, refrigeration (4 °C, 14 days), nominal 160 ng/mL
  Plasma sample stability (Mean ± SD, %): 107.44 ± 5.73%
[2]; rat plasma, room temperature (5 h), nominal 2 ng/mL
  Plasma sample stability (Mean ± SD, %): 95.75 ± 4.54%
[2]; rat plasma, room temperature (5 h), nominal 160 ng/mL
  Plasma sample stability (Mean ± SD, %): 95.18 ± 0.41%
[2]; rat plasma, −70 °C (28 days), nominal 2 ng/mL
  Plasma sample stability (Mean ± SD, %): 99.17 ± 3.88%
[2]; rat plasma, −70 °C (28 days), nominal 160 ng/mL
  Plasma sample stability (Mean ± SD, %): 104.42 ± 4.78%
[2]; rat, plasma
  stability in rat plasma under all examined conditions: stable
